Literature values, collected in patent US20140316796A1, “SYSTEMS, METHODS, AND COMPUTER-READABLE MEDIA FOR LIMITED DISTRIBUTION OF SPECIALTY DRUG USING A COMPUTER HUB OPERATING AT A SINGLE ACCESS POINT” (Jazz Pharmaceuticals, priority 2013, published 2014).

Assays:
[1] = pH 4
[2] = in vivo

CSCC[C@@H]1NC(=O)[C@H](CC(C)C)NC(=O)[C@H](CCCNC(=N)N)NC(=O)[C@H](CO)NC(=O)[C@@H]2CSSC[C@@H]3NC(=O)[C@H](CO)NC(=O)CNC(=O)[C@H]([C@@H](C)O)NC(=O)[C@H](CSSC[C@H](N)C(=O)N[C@@H](CCCCN)C(=O)NCC(=O)N[C@@H](CCCCN)C(=O)NCC(=O)N[C@@H](C)C(=O)N[C@@H](CCCCN)C(=O)N2)NC(=O)[C@H](CSSC[C@@H](C(N)=O)NC(=O)[C@H](CCCCN)NC(=O)CNC(=O)[C@H](CO)NC(=O)[C@H](CCCNC(=N)N)NC3=O)NC(=O)[C@H](CC(=O)O)NC(=O)[C@H](Cc2ccc(O)cc2)NC1=O [ziconotide]
stabilisation by methionine-containing buffer [1]: effective in stabilizing ziconotide
addiction potential [2]: does not have addiction potential
development of tolerance [2]: tolerance does not appear to develop
effect on respiratory function [2]: does not suppress respiratory function
